In US20250032454A1, “KDM1A INHIBITORS FOR THE TREATMENT OF DISEASE” (Imago Biosciences, Inc., priority 2021, published 2025):
Read-outs that look alike come from different tables or passages of the source.

Tests used:
[1] = system: human hematopoietic stem cells (CD34+); assay: HbF induction and red cell maturation in CD34+ hematopoietic stem cells differentiated to red cells over 18 days (HbF by HPLC); assay type: cell-based; settings: for concentration that inhibits/arrests red cell maturation: co-culture from Day 7, harvest Day 18; for concentration that induces HbF: co-culture from Day 7, harvest Day 18, total HbF by HPLC
Protocol: In an in vitro assay system, human hematopoietic stem cells (CD34^+) from a single donor are cultured to differentiate into red cells over the course of 18 days using standard culture methods with eythrogenic growth factors. Three test articles were co-cultured beginning on Day 7: the compound described in Example 11SS, a reversible inhibitor of LSD1; 4-(2-(4-aminopiperidin-1-yl)-5-(4-methoxyphenyl)-1-methyl-6-oxo-1,6-dihydropyrimidin-4-yl)-2-fluorobenzonitrile, a potent reversible inhibitor of LSD1; and 2-(((trans)-2-(4-(benzyloxy)phenyl)cyclopropyl)amino)-1-(4-methylpiperazin-1-yl) ethanone dihydrochloride (RN-1), a commercially available potent […] inhibitor of LSD1. Cells were harvested at Day 18 and total HbF was assayed by HPLC, e.g., using a C20 reverse phase column. 4-(2-(4-aminopiperidin-1-yl)-5-(4-methoxyphenyl)-1-methyl-6-oxo-1,6-dihydropyrimidin-4-yl)-2-fluorobenzonitrile and RN-1 both induce HbF at 3 nM but inhibit red cell maturation at 10 nM.

MV4;11 cells = assay: Cell Titer-Glo cell growth inhibition in MV4;11 cell line (Day 5 / Day 10); assay type: cell-based
Method in brief: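 Cells seeded at 3750/well and treated with a 10-point, 4-fold dose curve from 0 to 50 µM; ATP-based luminescence viability read at Day 5. A portion is reseeded into fresh compound and media for 5 more days, read at Day 10; IC50 derived from luminescence.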

LSD1 = LSD1 (Homo sapiens, UniProt O60341); assay: LSD1 fluorescence coupling enzyme assay (HRP/Amplex Red, H3(1-21)K4me2 peptide), 10-dose IC50; assay type: biochemical; settings: 10 μM histone H3(1-21)K4me2 peptide substrate, 3-fold serial dilution from 100 μM
Method in brief: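 Fluorescence coupled assay: LSD1 demethylation of 10 μM H3(1-21)K4me2 peptide produces FAD-dependent H2O2, detected via HRP/Amplex Red as resorufin (Ex/Em 535/590 nm). IC50 from 10 doses, 3-fold serial dilution from 100 μM, in duplicate.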

[2] = Homo sapiens, MV4-11, 120 h, Day 5, read-out: Cell Titer-Glo IC50 (5 d)
[3] = Homo sapiens, MV4-11, 240 h, Day 10, read-out: Cell Titer-Glo IC50 (10 d)
[4] = Day 5, read-out: Cell Titer-Glo IC50 (5 d)

Compound | IC50 (MV4;11 cells; [2]) [nM] | IC50 (MV4;11 cells; [3]) [nM] | IC50 (LSD1) [nM] | IC50 (MV4;11 cells; [4]) [nM] | concentration that inhibits/arrests red cell maturation [1] [nM] | concentration that induces HbF [1]
CN1CCN(C(=O)CN[C@@H]2C[C@H]2c2ccc(OCc3ccccc3)cc2)CC1.Cl.Cl (relative stereo) [RN-1, 2-(((trans)-2-(4-(benzyloxy)phenyl)cyclopropyl)amino)-1-(4-methylpiperazin-1-yl) ethanone dihydrochloride, reference compound] |  |  |  |  | 10 | 3 nM
COc1ccc(-c2c(-c3ccc(C#N)c(F)c3)nc(N3CCC(N)CC3)n(C)c2=O)cc1 [4-(2-(4-aminopiperidin-1-yl)-5-(4-methoxyphenyl)-1-methyl-6-oxo-1,6-dihydropyrimidin-4-yl)-2-fluorobenzonitrile] |  |  |  |  | 10 | 3 nM
N#Cc1ccc(-c2cc(NC[C@@H]3CCC[C@@H](N)C3)nn2-c2ccc(C(=O)N3CCCC3)cc2)cc1F [Example 64, 4-(3-((((1R,3R)-3-aminocyclohexyl)methyl)amino)-1-(4-(pyrrolidine-1-carbonyl)phenyl)-1H-pyrazol-5-yl)-2-fluorobenzonitrile] | 1000 to 10000 | < 500 | 1000 to 10000 |  |  | 
Cn1cc2ccc(-n3nc(NC[C@H]4CCC[C@H](N)C4)cc3-c3ccc(C#N)c(F)c3)cc2n1 [Example 67, 4-(3-((((1S,3S)-3-aminocyclohexyl)methyl)amino)-1-(2-methyl-2H-indazol-6-yl)-1H-pyrazol-5-yl)-2-fluorobenzonitrile] | < 500 | < 500 | 500 to 1000 |  |  | 
CC(C)n1cc2cc(-n3nc(NC[C@@H]4CCC[C@@H](N)C4)cc3-c3ccc(C#N)c(F)c3)ccc2n1 [Example 72, 4-(3-((((1R,3R)-3-aminocyclohexyl)methyl)amino)-1-(2-isopropyl-2H-indazol-5-yl)-1H-pyrazol-5-yl)-2-fluorobenzonitrile] | 500 to 1000 | < 500 | 1000 to 10000 |  |  | 
Cn1nnc2ccc(-n3nc(NC[C@H]4CCC[C@H](N)C4)cc3-c3ccc(C#N)c(F)c3)cc21 [Example 74, 4-(3-((((15,3S)-3-aminocyclohexyl)methyl)amino)-1-(1-methyl-1H-benzo[d][1,2,3]triazol-6-yl)-1H-pyrazol-5-yl)-2-fluorobenzonitrile] | 1000 to 10000 | < 500 | 1000 to 10000 |  |  | 
COc1ccc(-n2nc(NC[C@H]3CCC[C@@H](CN)C3)cc2-c2ccc(C#N)c(F)c2)cc1 [Example 77, 4-(3-((((1S,3R)-3-(aminomethyl)cyclohexyl)methyl)amino)-1-(4-methoxyphenyl)-1H-pyrazol-5-yl)-2-fluorobenzonitrile] | 1000 to 10000 | 1000 to 10000 | 1000 to 10000 |  |  | 
COc1ccc(-n2nc(N3CCCC4CCCCC43)cc2-c2ccc(C#N)c(F)c2)cc1 (centres unmarked) [Example 82, 2-fluoro-4-(1-(4-methoxyphenyl)-3-(octahydroquinolin-1(2H)-yl)-1H-pyrazol-5-yl)benzonitrile] |  | > 10000 | 1000 to 10000 |  |  | 
(R)-4-(3-(3-aminopiperidin-1-yl)-1-(p-tolyl)-1H-pyrazol-5-yl)-2-fluorobenzonitrile/(R)-4-(5-(3-aminopiperidin-1-yl)-1-(p-tolyl)-1H-pyrazol-3-yl)-2-fluorobenzonitrile [Example 38] |  |  | < 500 | 1000 to 10000 |  | 
(S)-4-(3-(3-aminopiperidin-1-yl)-1-(p-tolyl)-1H-pyrazol-5-yl)-2-fluorobenzonitrile/(S)-4-(5-(3-aminopiperidin-1-yl)-1-(p-tolyl)-1H-pyrazol-3-yl)-2-fluorobenzonitrile [Example 39] |  |  | < 500 | 1000 to 10000 |  | 

The next lines start with results.

IC50 (MV4;11 cells; [2]) [nM] | IC50 (MV4;11 cells; [3]) [nM] | IC50 (LSD1) [nM] | IC50 (MV4;11 cells; [4]) [nM] | Compound | concentration that inhibits/arrests red cell maturation [1] [nM] | concentration that induces HbF [1]
500 to 1000 | < 500 | < 500 |  | COc1ccc(-n2nc(NC[C@H]3CCC[C@H](N)C3)cc2-c2ccc(C#N)c(F)c2)cc1 [Example 11SS, 4-(3-((((1S,3S)-3-aminocyclohexyl)methyl)amino)-1-(4-methoxyphenyl)-1H-pyrazol-5-yl)-2-fluorobenzonitrile] | 300 | a higher concentration
< 500 | < 500 | < 500 |  | N#Cc1ccc(-c2cc(NC[C@H]3CCC[C@H](N)C3)nn2-c2ccc(C(=O)N3CCCC3)cc2)cc1F [Example 63, 4-(3-((((1S,3S)-3-aminocyclohexyl)methyl)amino)-1-(4-(pyrrolidine-1-carbonyl)phenyl)-1H-pyrazol-5-yl)-2-fluorobenzonitrile] |  | 
500 to 1000 | < 500 | < 500 |  | N#Cc1ccc(-c2cc(NC[C@H]3CCC[C@H](N)C3)nn2-c2ccc3[nH]ncc3c2)cc1F [Example 65, 4-(3-((((1S,3S)-3-aminocyclohexyl)methyl)amino)-1-(1H-indazol-5-yl)-1H-pyrazol-5-yl)-2-fluorobenzonitrile] |  | 
< 500 | < 500 | < 500 |  | Cn1ccc2cc(-n3nc(NCC4CCC[C@H](N)C4)cc3-c3ccc(C#N)c(F)c3)ccc21 (stereo partly drawn) [Example 66, 4-(3-((((1,3S)-3-aminocyclohexyl)methyl)amino)-1-(1-methyl-1H-indol-5-yl)-1H-pyrazol-5-yl)-2-fluorobenzonitrile] |  | 
< 500 | < 500 | < 500 |  | Cn1nnc2cc(-n3nc(NC[C@H]4CCC[C@H](N)C4)cc3-c3ccc(C#N)c(F)c3)ccc21 [Example 68, 4-(3-((((1S,3S)-3-aminocyclohexyl)methyl)amino)-1-(1-methyl-1H-benzo[d][1,2,3]triazol-5-yl)-1H-pyrazol-5-yl)-2-fluorobenzonitrile] |  | 
 | < 500 | < 500 |  | Cn1nc2ccc(-n3nc(NC[C@H]4CCC[C@H](N)C4)cc3-c3ccc(C#N)c(F)c3)cc2n1 [Example 69, 4-(3-((((15,3S)-3-aminocyclohexyl)methyl)amino)-1-(2-methyl-2H-benzo[d][1,2,3]triazol-5-yl)-1H-pyrazol-5-yl)-2-fluorobenzonitrile] |  | 
1000 to 10000 | < 500 | < 500 |  | N#Cc1ccc(-c2cc(NC[C@@H]3CCC[C@@H](N)C3)nn2-c2ccc3nn(CCO)cc3c2)cc1F [Example 70, 4-(3-((((1R,3R)-3-aminocyclohexyl)methyl)amino)-1-(2-(2-hydroxyethyl)-2H-indazol-5-yl)-1H-pyrazol-5-yl)-2-fluorobenzonitrile] |  | 
< 500 | < 500 | < 500 |  | N#Cc1ccc(-c2cc(NC[C@@H]3CCC[C@@H](N)C3)nn2-c2ccc3c(cnn3CCO)c2)cc1F [Example 71, 4-(3-((((1R,3R)-3-aminocyclohexyl)methyl)amino)-1-(1-(2-hydroxyethyl)-1H-indazol-5-yl)-1H-pyrazol-5-yl)-2-fluorobenzonitrile] |  | 
500 to 1000 | < 500 | < 500 |  | CC(C)n1ncc2cc(-n3nc(NC[C@@H]4CCC[C@@H](N)C4)cc3-c3ccc(C#N)c(F)c3)ccc21 [Example 73, 4-(3-((((1R,3R)-3-aminocyclohexyl)methyl)amino)-1-(1-isopropyl-1H-indazol-5-yl)-1H-pyrazol-5-yl)-2-fluorobenzonitrile] |  | 
500 to 1000 | < 500 | < 500 |  | N#Cc1ccc(-c2cc(NC[C@@H]3CCC[C@@H](N)C3)nn2-c2ccc3c(cnn3-c3ccncc3)c2)cc1F [Example 76, 4-(3-((((1R,3R)-3-aminocyclohexyl)methyl)amino)-1-(1-(pyridin-4-yl)-1H-indazol-5-yl)-1H-pyrazol-5-yl)-2-fluorobenzonitrile] |  | 
1000 to 10000 | 1000 to 10000 | < 500 |  | COc1ccc(-n2nc(NC[C@@H]3CCC[C@@H](CN)C3)cc2-c2ccc(C#N)c(F)c2)cc1 [Example 78, 4-(3-((((1R,3R)-3-(aminomethyl)cyclohexyl)methyl)amino)-1-(4-methoxyphenyl)-1H-pyrazol-5-yl)-2-fluorobenzonitrile] |  | 
